Results from patent US20240287080A1 (IDEAYA Biosciences Inc., priority 2021, published 2024).

Each compound was assayed against T1, Pol theta (1-899) (Homo sapiens, UniProt O75417) (assay: Pol theta ATPase activity, NADH oxidation-coupled enzymatic assay (ATPase NADH coupling: Standard Screening: hPolQ)). Details: Pol theta (1-899) 5 nM, NADH oxidation-coupled ATPase assay; compounds of Table 3.
T1 construct: Pol theta (1-899) (5 nM) in assay buffer
Assay type: biochemical
Method in brief: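 NADH-coupled ATPase readout: 5 nM Pol theta (1-899) preincubated 15 min with 10-point compound series in Tris pH 7.80, KCl, MgCl2, DTT, BSA, Tween, glycerol, then 100 μM ATP, 300 nM 50-mer poly-dT ssDNA, NADH, PEP, LDH and PK added (stock levels). A340 followed 60 min; slopes fit four-parameter for IC50.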

T1 sequence (O75417 1-899): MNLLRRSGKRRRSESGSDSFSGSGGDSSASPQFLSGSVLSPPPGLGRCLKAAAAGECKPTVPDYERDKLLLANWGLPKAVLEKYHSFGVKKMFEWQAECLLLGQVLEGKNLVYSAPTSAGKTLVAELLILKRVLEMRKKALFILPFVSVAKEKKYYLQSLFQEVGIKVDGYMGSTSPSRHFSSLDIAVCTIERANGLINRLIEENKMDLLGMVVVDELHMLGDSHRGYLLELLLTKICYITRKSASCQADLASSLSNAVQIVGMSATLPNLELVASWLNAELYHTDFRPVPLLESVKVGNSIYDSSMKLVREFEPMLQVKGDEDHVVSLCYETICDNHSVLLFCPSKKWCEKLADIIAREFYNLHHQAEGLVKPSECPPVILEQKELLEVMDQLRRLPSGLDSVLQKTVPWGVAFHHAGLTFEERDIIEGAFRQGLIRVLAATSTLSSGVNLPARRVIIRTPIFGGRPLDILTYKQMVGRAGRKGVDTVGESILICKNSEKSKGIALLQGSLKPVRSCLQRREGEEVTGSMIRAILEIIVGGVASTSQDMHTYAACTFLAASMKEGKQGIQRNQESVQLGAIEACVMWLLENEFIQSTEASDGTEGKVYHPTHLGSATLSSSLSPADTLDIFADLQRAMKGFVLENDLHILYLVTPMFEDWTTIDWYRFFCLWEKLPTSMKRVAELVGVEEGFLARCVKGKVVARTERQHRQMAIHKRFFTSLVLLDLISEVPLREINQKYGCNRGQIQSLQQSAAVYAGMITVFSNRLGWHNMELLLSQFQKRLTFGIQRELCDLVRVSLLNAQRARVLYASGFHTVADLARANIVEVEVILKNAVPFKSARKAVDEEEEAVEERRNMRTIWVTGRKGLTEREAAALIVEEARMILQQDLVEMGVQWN

| IC50 | Compound |
| --- | --- |
| 1000 to 10000 nM | COc1nnc(NC(=O)c2cnc(C)cc2-c2cncc(C(=O)NC3CC3)c2)s1 [Example 403, N5-cyclopropyl-N3′-(5-methoxy-1,3,4-thiadiazol-2-yl)-6′-methyl-[3,4′-bipyridine]-3′,5-dicarboxamide] |
| 1000 to 10000 nM | COc1nnc(NC(=O)c2cnc(C)cc2-c2cccc(OC)c2C#N)s1 [Example 411, 4-(2-cyano-3-methoxyphenyl)-N-(5-methoxy-1,3,4-thiadiazol-2-yl)-6-methylpyridine-3-carboxamide] |
| ≤ 200 nM | COc1cnc(C)c(F)c1-c1cc(C)ncc1C(=O)Nc1nnc(O[C@@H]2CO[C@H]3OCC[C@H]32)s1 (single isomer, unassigned) [Example 304] |
| 1000 to 10000 nM | COc1nnc(NC(=O)c2cnc(C)cc2-c2ccc(C(=O)N(C)C)cc2)s1 [Example 369, 4-[4-(dimethylcarbamoyl)phenyl]-N-(5-methoxy-1,3,4-thiadiazol-2-yl)-6-methylpyridine-3-carboxamide] |
| 1000 to 10000 nM | COc1nnc(NC(=O)c2cnc(C)cc2-c2ccn(C)c(=O)c2)s1 [Example 351, N-(5-methoxy-1,3,4-thiadiazol-2-yl)-1′,6-dimethyl-2′-oxo-1′,2′-dihydro-[4,4′-bipyridine]-3-carboxamide] |
| ≤ 200 nM | COc1nnc(NC(=O)c2cc(CC#N)ncc2-c2cc(Cl)ncc2OC)s1 [Example 302, 2′-chloro-6-(cyanomethyl)-5′-methoxy-N-(5-methoxy-1,3,4-thiadiazol-2-yl)-[3,4′-bipyridine]-4-carboxamide] |
| 1000 to 10000 nM | COc1ccc(-c2cc(C)ncc2C(=O)Nc2nnc(OC)s2)cc1 [Example 377, N-(5-methoxy-1,3,4-thiadiazol-2-yl)-4-(4-methoxyphenyl)-6-methylpyridine-3-carboxamide] |
| ≤ 200 nM | COc1cnc(C)c(F)c1-c1cc(C)ncc1C(=O)Nc1nnc(O[C@H]2CC[C@H](CO)CC2)s1 [Example 314, 3′-fluoro-N-(5-(((1r,4r)-4-(hydroxymethyl)cyclohexyl)oxy)-1,3,4-thiadiazol-2-yl)-5′-methoxy-2′,6-dimethyl-[4,4′-bipyridine]-3-carboxamide] |
| 1000 to 10000 nM | COc1nnc(NC(=O)c2cnc(C)cc2-c2cccc(S(N)(=O)=O)c2)s1 [Example 385, N-(5-methoxy-1,3,4-thiadiazol-2-yl)-6-methyl-4-(3-sulfamoylphenyl)pyridine-3-carboxamide] |
| 1000 to 10000 nM | COc1nnc(NC(=O)c2cnc(C)cc2-c2ccc(C#N)cc2)s1 [Example 365, 4-(4-cyanophenyl)-N-(5-methoxy-1,3,4-thiadiazol-2-yl)-6-methylpyridine-3-carboxamide] |
| ≤ 200 nM | COc1cnc(Cl)cc1-c1cc(C)ncc1C(=O)Nc1nnc(O[C@@H]2CCCN([C@@H]3CCOC3)C2)s1 [Example 264, 2′-chloro-5′-methoxy-6-methyl-N-(5-(((R)-1-((R)-tetrahydrofuran-3-yl)piperidin-3-yl)oxy)-1,3,4-thiadiazol-2-yl)-[4,4′-bipyridine]-3-carboxamide] |
| 1000 to 10000 nM | COc1nnc(NC(=O)c2cnc(C)cc2-c2ccc(OC(F)F)cc2)s1 [Example 448, 4-[4-(difluoromethoxy)phenyl]-N-(5-methoxy-1,3,4-thiadiazol-2-yl)-6-methylpyridine-3-carboxamide] |
| 1000 to 10000 nM | COc1nnc(NC(=O)c2cnc(C)cc2-c2cncc(C(N)=O)c2)s1 [Example 340, N3′-(5-methoxy-1,3,4-thiadiazol-2-yl)-6′-methyl-[3,4′-bipyridine]-3′,5-dicarboxamide] |
| 1000 to 10000 nM | COc1nnc(NC(=O)c2cnc(C)cc2-c2ccc(S(=O)(=O)N(C)C)cc2)s1 [Example 382, 4-[4-(dimethylsulfamoyl)phenyl]-N-(5-methoxy-1,3,4-thiadiazol-2-yl)-6-methylpyridine-3-carboxamide] |
| 200 to 500 nM | COc1ccc(-c2cc(C)ncc2C(=O)Nc2nnc(OC)s2)c(OC)c1 [Example 462, 4-(2,4-dimethoxyphenyl)-N-(5-methoxy-1,3,4-thiadiazol-2-yl)-6-methylpyridine-3-carboxamide] |
| ≤ 200 nM | COc1cnc(Cl)cc1-c1cc(C)ncc1C(=O)Nc1nnc(O[C@H]2CC[C@@]23CCOC3)s1 (racemic) [Example 292, rac-N-(5-(((1S,4S)-6-oxaspiro[3.4]octan-1-yl)oxy)-1,3,4-thiadiazol-2-yl)-2′-chloro-5′-methoxy-6-methyl-[4,4′-bipyridine]-3-carboxamide] |
| 1000 to 10000 nM | COc1nnc(NC(=O)c2cnc(C)cc2-c2cc(C)c([S@@+](C)[O-])cc2OC)s1 (single isomer, unassigned) [Example 308] |
| ≤ 200 nM | COc1cc(C(=O)Nc2nnc(OC)s2)c(-c2cc(Cl)ncc2OC)cn1 [Example 242, 2′-chloro-5′,6-dimethoxy-N-(5-methoxy-1,3,4-thiadiazol-2-yl)-[3,4′-bipyridine]-4-carboxamide] |
| 1000 to 10000 nM | COc1nnc(NC(=O)c2cnc(C)cc2-c2ccc(C(F)(F)F)cc2)s1 [Example 355, N-(5-methoxy-1,3,4-thiadiazol-2-yl)-methyl4-(4-(trifluoromethyl)phenyl) nicotinamide] |
| 500 to 1000 nM | COc1nnc(NC(=O)c2cnc(C)cc2-c2ccc3nccnc3c2)s1 [Example 341, N-(5-methoxy-1,3,4-thiadiazol-2-yl)-6-methyl-4-(quinoxalin-6-yl)pyridine-3-carboxamide] |

Same assay, conditions: Table 4; Pol theta (1-899) 5 nM, ATP, dT50 ssDNA

| IC50 | Compound |
| --- | --- |
| ≤ 200 nM | COc1nnc(NC(=O)c2cnc(C)cc2-c2cc(Cl)ncc2C)s1 [Example 39, 2′-chloro-N-(5-methoxy-1,3,4-thiadiazol-2-yl)-5′,6-dimethyl-(4,4′-bipyridine)-3-carboxamide] |
| ≤ 200 nM | COc1cnc(Cl)c(F)c1-c1cc(C)ncc1C(=O)Nc1nnc(OC2COC2)s1 [Example 60, 2′-chloro-3′-fluoro-5′-methoxy-6-methyl-N-(5-(oxetan-3-yloxy)-1,3,4-thiadiazol-2-yl)-(4,4′-bipyridine)-3-carboxamide] |
| ≤ 200 nM | COc1nnc(NC(=O)c2cnc(C)cc2-c2cc(C)ncc2OC)s1 [Example 8] |
| ≤ 200 nM | COc1nnc(NC(=O)c2cnc(C)cc2-c2c(OC)cnc(Cl)c2F)s1 [Example 47, 2′-chloro-3′-fluoro-5′-methoxy-N-(5-methoxy-1,3,4-thiadiazol-2-yl)-6-methyl-(4,4′-bipyridine)-3-carboxamide] |
| ≤ 200 nM | COc1cnc(Cl)cc1-c1cc(C)ncc1C(=O)Nc1nnc(O[C@@H]2CC[C@H](O)C2)s1 (single isomer, unassigned) [Example 59] |
| 200 to 500 nM | CCOc1ccc(Cl)cc1-c1cc(C)ncc1C(=O)Nc1nnc(OC)s1 [Example 53, 4-(5-chloro-2-ethoxyphenyl)-N-(5-methoxy-1,3,4-thiadiazol-2-yl)-6-methylnicotinamide] |
| ≤ 200 nM | COc1cnc(Cl)cc1-c1cc(C)ncc1C(=O)Nc1nnc(OC(C)C)s1 [Example 6, 2′-chloro-N-(5-isopropoxy-1,3,4-thiadiazol-2-yl)-5′-methoxy-6-methyl-(4,4′-bipyridine)-3-carboxamide] |

Same assay, conditions: Table 5; Pol theta (1-899) 5 nM, ATP, dT50 ssDNA

| IC50 | Compound |
| --- | --- |
| ≤ 200 nM | COc1cnc(C)c(F)c1-c1cc(C)ncc1C(=O)Nc1nnc(O[C@H]2CC[C@@](C)(O)CC2)s1 (single isomer, unassigned) [Example 221, 3′-fluoro-N-(5-(((1s,4s)-4-hydroxy-4-methylcyclohexyl)oxy)-1,3,4-thiadiazol-2-yl)-5′-methoxy-2′,6-dimethyl-(4,4′-bipyridine)-3-carboxamide] |
| ≤ 200 nM | COc1cnc(Cl)cc1-c1cc(C)ncc1C(=O)Nc1nnc(O[C@@H]2CC[C@H]2O)s1 (single isomer, unassigned) [Example 118] |
| ≤ 200 nM | COc1cnc(Cl)c(F)c1-c1cc(C)ncc1C(=O)Nc1nnc(O[C@H]2CCC[C@H](O)C2)s1 (single isomer, unassigned) [Example 156] |
| ≤ 200 nM | COc1cnc(Cl)c(F)c1-c1cc(C)ncc1C(=O)Nc1nnc(O[C@@H]2CCO[C@H]2C)s1 (single isomer, unassigned) [Example 167] |
| ≤ 200 nM | COc1cnc(Br)c(F)c1-c1cc(C)ncc1C(=O)Nc1nnc(O[C@@H]2CCOC2)s1 [Example 201, 2′-bromo-3′-fluoro-5′-methoxy-6-methyl-N-(5-(((R)-tetrahydrofuran-3-yl)oxy)-1,3,4-thiadiazol-2-yl)-(4,4′-bipyridine)-3-carboxamide] |
| ≤ 200 nM | COc1cnc(Cl)cc1-c1cc(C)ncc1C(=O)Nc1nnc(O[C@H]2COC3(CCCC3)C2)s1 (single isomer, unassigned) [Example 230] |
| 500 to 1000 nM | COc1cnc(Cl)cc1-c1cc(C2CCCC2)ncc1C(=O)Nc1nnc(O[C@@H]2CCOC2)s1 [Example 134, (R)-2′-chloro-6-cyclopentyl-5′-methoxy-N-(5-((tetrahydrofuran-3-yl)oxy)-1,3,4-thiadiazol-2-yl)-(4,4′-bipyridine)-3-carboxamide] |
| 200 to 500 nM | COc1cnc(Cl)cc1-c1cc(C)ncc1C(=O)Nc1nnc(O[C@H]2CCO[C@H]2C)s1 (racemic) [Example 92, rac-2′-Chloro-5′-methoxy-6-methyl-N-(5-(((2R,3R)-2-methyltetrahydrofuran-3-yl)oxy)-1,3,4-thiadiazol-2-yl)-(4,4′-bipyridine)-3-carboxamide] |

Same assay, conditions: Table 5; values given as bound; Pol theta (1-899) 5 nM, ATP, dT50 ssDNA

| IC50 | Compound |
| --- | --- |
| > 10000 nM | COc1nnc(NC(=O)c2cnc(CN3CC(OC)C3)cc2-c2cc(Cl)ncc2OC)s1 [Example 144, 2′-chloro-5′-methoxy-N-(5-methoxy-1,3,4-thiadiazol-2-yl)-6-((3-methoxyazetidin-1-yl)methyl)-(4,4′-bipyridine)-3-carboxamide] |
| > 10000 nM | COc1nnc(NC(=O)c2cn(C)nc2-c2cc(Cl)ncc2OC)s1 [Example 110, 3-(2-chloro-5-methoxypyridin-4-yl)-N-(5-methoxy-1,3,4-thiadiazol-2-yl)-1-methyl-1H-pyrazole-4-carboxamide] |
